From US20190008957A1, “COMBINATION THERAPIES INCLUDING INHIBITORS OF THE EXTRACELLULAR DOMAIN OF E-CADHERIN” (The Research Foundation for The State of New York, priority 2012, published 2019)
Where a SMILES comes first, the peptide text is derived from it. [ ]: non-standard residue; d: D form. Nle = CCCC[C@H](N)C(=O)O

Tests used:
[1] = system: skin (SCC12b, SCC13, PAM212 and CC4A) and the head & neck FADU cell line; assay: Matrigel invasion of SCC cells; type: cell-based; conditions: for sEcad-induced invasion: PAM212 skin SCC cells, HER inhibitors
[2] = system: MCF-7, SKBR3 and MDA-MB-231 breast cancer cell lines; assay: BrdU proliferation in breast cancer cell lines; type: cell-based, human; conditions: breast cancer cells; Canertinib 1 μM, Lapatinib 5 μM, Gefitinib 5 μM
Description: (§1) For BrdU staining, cells were incubated with 10 μM BrdU for 2 h prior to fixation and processed for immunofluorescence microscopy as previously described (Brouxhon et al., Cancer Res. 67:7654-64, 2007). For BrdU analyses, cells were counted from 6 low-power fields (×100) per section. BrdU incorporation was also analyzed by a cell proliferation ELISA 5-bromo-2′-deoxyuridine (BrdU) (colorimetric) kit (Roche, Stockholm, Sweden), according to the manufacturer's instructions. Migration and invasion of cells were measured using 8.0 μm pore BD BioCoat Control Insert 24-well plates (no. 354578) and Matrigel Invasion Chamber 24-well Plates (no. 354480), respectively (BD Bioscience). Cells were collected, washed, and 2×10^5 cells were plated in 0.4% FBS medium in the top chamber, with 0-20 μg/mL of rhEcad/Fc in the bottom chamber. After 22 h, cells on the top were removed using a cotton swab. Migrated or invaded cells on the lower surface were fixed with methanol, stained with 0.5% crystal violet, examined by bright field microscopy and photographed. Migration or invasion was quantitated by counting migrated or invaded cells in at least ten random high-power fields per insert and expressed as averages. Results are presented as fold change of the number of migrated/invaded cells to the untreated controls in triplicate experiments.

[3] = system: HER1, HER2, IGF-1R; assay: Western blot of receptor phosphorylation in skin and oropharyngeal SCC cell lines; type: cell-based; conditions: PAM212 cells
Description: (§2) After brief sonication, lysates were cleared by centrifugation at 4° C. […] After transfer to nitrocellulose membrane and blocking with 1% BSA, samples were probed with primary antibodies. Western blot images were captured using HP Scanjet G4050 and analyzed relative to G3PDH or actin using NIH Scion Image.
(§3) Antibodies against total HER1 and HER 4 and phosphorylated HER1-4, pPI3K, pAkt, pmTOR, p4E-BP1, pRaptor and pp70S6K obtained from Cell Signaling Technologies. Monoclonal antibodies to HER3 and HER4 were obtained from Thermo Scientific. Polyclonal antibody to the extracellular domain of E-cadherin and monoclonal antibody to α-actin were obtained from Santa Cruz Biotechnology. Monoclonal antibody to the extracellular domain of E-cadherin (DECMA-1) and to His Tag were obtained from Sigma and Abcam, respectively. Monoclonal antibody to G3PDH, ubiquitin and rat IgG1 were obtained from Ambion, Zymed and Southern Biotechnology, respectively.

[4] = system: oropharyngeal FADU and skin SCC (PAM212, CC4A, SCC13 and SCC12b) cell lines; assay: Proliferation in oropharyngeal and skin SCC cell lines; type: cell-based; conditions: PAM212 skin SCC cells; HER inhibitors
Description: as §1

[5] = system: skin (PAM212, CC4A, SCC12b, SCC13) and oropharyngeal (FADU) cells; assay: Transwell migration of SCC cells; type: cell-based; conditions: PAM212 skin SCC cells; HER inhibitors
Description: as §1

[6] = system: lysosome and ubiquitin-proteasome pathways; assay: Lysosome/proteasome inhibitor rescue of anti-sEcad mAb-induced apoptosis and HER1-4 expression; type: cell-based
Description: Cellular apoptosis was quantitatively determined using the Cell Death Apoptosis Detection ELISA Plus kit (Boehringer Mannheim), which is based on the detection of DNA-histone complexes in the form of mono- and oligo-nucleosomes, according to the manufacturer's instructions. Briefly, cells were treated in the presence or absence of various concentrations of DECMA-1 or rat IgG1 for 24 to 48 h. Cells were harvested by trypsinization, counted and lysates were subjected to the ELISA. In vitro and in vivo apoptosis was further analyzed by in situ detection of fragmented DNA, using the DeadEnd Fluorometric TUNEL System (Promega), the ApopTag Peroxidase In situ Apoptosis Detection Kit (Millipore) and the human Apoptosis Array Kit (ARY009, R & D), according to the manufacturer's instructions. The ApopTag kit was performed on deparaffinized 5 μm-thick sections treated with proteinase K (20 μg/ml) at RT. For cell counting, the cells were trypsinized and counted on a haemocytometer. For tumor BrdU analyses, tissues were stained using an anti-BrdU (ab2284, abcam) antibody, as previously described (27). The proliferation of cells was monitored by a cell proliferation ELISA 5-bromo-2′-deoxyuridine (BrdU) (colorimetric) kit (Roche, Stockholm, Sweden), according to the manufacturers protocol.
Human MCF-7 and BT474 parental cells were purchased from the American Type Culture Collection (ATCC), and cultured according to ATCC recommendations. BT474-Herceptin resistant cells were a kind gift of Dr. Kute (Wake Forest University, Winston-Salem, N.C.) and grown in 10% FBS RPMI-1640 medium (ATCC). Anti-sEcad ectodomain-specific antibodies include DECMA-1 (Sigma), HECD-1 (Calbiochem), SHE78-7 (Calbiochem) and H108 (Santa Cruz Biotechnology). The IAP antibody sampler kit was purchased from Cell Signaling. ALLN proteasome and chloroquine lysosome inhibitors were obtained from Sigma.

[7] = system: breast (MCF-7, SKBR3) cells; assay: Transwell migration of breast cancer cells; type: cell-based, human; conditions: breast cancer cells (MCF-7)
Description: as §1, with “After 22 h, cells on the top were removed using a cotton swab.” left out

[8] = system: MEK1/2, ERK1/2, PI3K, Akt, mTOR, p70S6K, 4EBP1; assay: Western blot of downstream MAPK-PI3K/Akt/mTOR signaling in SCC cell lines; type: cell-based; conditions: PAM212 cells
Description: as §2, §3

[9] = system: MDA-MB-231 and MCF-7 breast cancer cells; assay: Matrigel invasion of breast cancer cells; type: cell-based, human; conditions: MDA-MB-231 cell line; compared to untreated controls
Description: as §1, with “After 22 h, cells on the top were removed using a cotton swab.” left out

| Structure (SMILES) | sEcad-induced invasion [1] | basal and sEcad-induced BrdU incorporation [2] | sEcad-induced proliferation [4] | sEcad-induced migration [5] | HER1-4 expression in anti-sEcad mAb treated cells in presence of inhibitor [6] | anti-sEcad mAb-induced apoptosis in presence of inhibitor [6] | other results |
| --- | --- | --- | --- | --- | --- | --- | --- |
| C=CC(=O)Nc1cc2c(Nc3ccc(F)c(Cl)c3)ncnc2cc1OCCCN1CCOCC1 [Canertinib] | effectively inhibited sEcad-induced proliferation, migration and invasion | significantly reduced both basal and sEcad-induced BrdU incorporation | effectively inhibited sEcad-induced proliferation, migration and invasion | effectively inhibited sEcad-induced proliferation, migration and invasion | – | – | sEcad-induced HER1 phosphorylation [3]: completely abrogated; sEcad-induced HER2 phosphorylation (pHER2) [3]: completely abrogated; phospho-IGF-1R levels ([3]; in the presence of sEcad, compared to corresponding controls): did not alter |
| CNC(=O)[C@H](Cc1c[nH]c2ccccc12)NC(=O)[C@@H](CC(=O)NO)CC(C)C [GM6001, Ilomastat] | – | – | – | – | – | – | sEcad-stimulated invasion ([1]; PAM212 cells treated with 20 μg/mL rmEcad/Fc): completely blocked |
| CCCC[C@@H](C=O)NC(=O)[C@H](CC(C)C)NC(=O)[C@H](CC(C)C)NC(C)=O [ALLN] (Ac-Leu-Leu-[Nle]-aldehyde) | – | – | – | – | rescue of HER1-4 expression | inhibited | – |
| FC(F)(F)c1ccc(/C=C/c2nc(COc3ccc(CCCCn4ccnn4)cc3)co2)cc1 [Mubritinib] | – | – | – | – | – | – | basal and rhEcad/Fc-mediated migration [7]: only blocked sECad-induced MCF-7 migration |
| COc1cc2ncnc(Nc3ccc(F)c(Cl)c3)c2cc1OCCCN1CCOCC1 [Gefitinib] | effectively inhibited sEcad-induced proliferation, migration and invasion | significantly reduced both basal and sEcad-induced BrdU incorporation | effectively inhibited sEcad-induced proliferation, migration and invasion | effectively inhibited sEcad-induced proliferation, migration and invasion | – | – | sEcad-induced phosphorylation of 4EBP1 [8]: only minimal effects; sEcad-induced phosphorylation of ERK1/2, Akt and p70S6K [8]: decreased; sEcad-induced phosphorylation of PI3K [8]: decreased; basal and sEcad-induced invasion [9]: significantly reduced |
| CCN(CC)CCCC(C)Nc1ccnc2cc(Cl)ccc12 (stereo not drawn) [Chloroquine] | – | – | – | – | rescued HER1-4 membrane expression | prevented anti-sEcad mAb-induced apoptosis at low doses | – |
